Laboratory results as given in US20250387406A1, “THERAPY FOR REDUCED OTOTOXICITY FROM CHEMOTHERAPEUTIC AGENT WITH PENTAAZA MACROCYCLIC RING COMPLEX” (GALERA LABS, LLC, priority 2022, published 2025).

Assays:
rat [1] = details: Salvemini et al. 1999; cited from earlier work
rat [2] = details: Salvemini et al. 2001; cited from earlier work
adult mice = details: lethal total body irradiation, Thompson et al. 2010; cited from earlier work
[3] = test system: rats subjected to an experimental model of colitis; details: rat colitis model, Cuzzocrea et al. 2001; cited from earlier work
hamster = hamster oral mucositis, Murphy et al. 2008; cited from earlier work
[4] = test system: hair cells in mouse cochlea cultures; test: Cochlear organotypic cultures with cisplatin, hair cell number; assay type: cell-based
Experimental: Cochlear organotypic cultures. C57BL/10J mice were decapitated on postnatal day 2 or 3. The stria vascularis and spiral ligament was removed and the organ of Corti and spiral ganglion neurons from the middle turn of the cochlea dissected out. The middle turn of the cochlea was placed in a collagen matrix and 1 ml of serum-free BME plus serum free supplement, 1% bovine serum albumin, 2 mM glutamine, 5 mg/ml glucose, and 10 U/ml penicillin on a collagen pre-prepared culture dish. The cochlear explants were incubated at 4% O2, 37° C. in 5% CO2 for 2 h. […] After 24 hours the cultures were fixed for 4 h in 4% paraformaldehyde as previously described (see, e.g., McFadden et al., Toxicol Appl Pharmacol. 2003; 186(1):46-54) and immersed in rhodamine-labeled phalloidin in PBS for 30 min. […] Tissues were examined histologically for inner and outer hair cell organization and number as previously described. Dihydroethidium (DHE) was used to measure oxidative stress. […] The cochlear specimens were incubated with 1 μm DHE for 30 min at 37° C. and then fluorescent images obtained with a confocal laser microscope as previously described (see, e.g., Fetoni et al., The Journal of neuroscience: the official journal of the Society for Neuroscience. 2013; 33(9):4011-23).

H1299 (wild type) cells [5] = test: Hydrogen peroxide, PO-1 probe, H1299; assay type: cell-based, human
CBA/CaJ mice = test: In vivo multicycle mouse model of cisplatin toxicity; details: 10 mg/kg GC4419 1 hour prior to 3.0 mg/kg cisplatin IP
Male C57BL/6J mice = test: Cisplatin-induced acute kidney injury (AKI) model in mice; assay type: in vivo, mouse
Description: 4 month old male C57BL/6J mice (young) were purchased from Jackson Laboratories and 18 month old mice (old) were obtained as collaboration with Dr. Amy Sindler (University of Iowa) from the National institute of Aging. All mice were maintained in accordance with ACURF approval #4121235 at the University of Iowa Animal Care facility. Mice were maintained on normal diets and water ad libitum through the course of the experiment.
Animals were weighed every other day following the start of treatment with GC4419.

[6] = test system: head-and-neck cancer patients; details: patients undergoing chemoradiation therapy, Anderson 2015; cited from earlier work
[7] = test system: H460 human non-small cell lung carcinoma (NSCLC) cells; test: Survival of H460 cells in culture with GC4419 and cisplatin; assay type: cell-based; design: dose or concentration left out as unconfirmed; details: GC4419 added to indicated concentrations of cisplatin, 120 hrs, vs cisplatin alone
Experimental: After 120 hrs the surviving fraction of cells was determined.

[8] = test system: hair cells in mouse cochlea cultures; test: Mouse cochlea cultures with paclitaxel, hair cell number; assay type: cell-based; details: 2 μM GC4419 for 48 or 72 hours (24 hour pre-treatment) with paclitaxel 0.1 μM and 1 μM
Experimental: Pups from C57BL/B16 pregnant female mice were decapitated on postnatal day 3. The stria vascularis and spiral ligament were removed, and the cochlea dissected out. The cochlea was placed in 400 ul of DMEM 5% FBS on a collagen pre-prepared culture dish and incubated at 4% O2, 37° C. in 5% CO2 for 24 hours. The medium was then exchanged with new medium that contained paclitaxel 0, 100 nM, and 1 μM, with and without 2 μM GC4419 for 48 hours, or pretreated for 24 hours with 2 μM GC4419 followed by paclitaxel treatment. The explants were then fixed for 1 hour in 4% paraformaldehyde. Specimens were stained with anti-myosin-VIIa antibody. Specimens were mounted and examined under a fluorescence microscope and hair cells counted using the image analysis software Imaris.

H1299 (wild type) cells [9] = test: Total reactive oxygen species, CellROX probe, flow cytometer, H1299; assay type: cell-based, human
Experimental: (§1) After the treatments and incubations CellROX fluorogenic probes for total ROS were added for 30 minutes continued incubation and the CellROX signal was measured using a flow cytometer.

H460 cells [10] = test: Mitochondrial superoxide, MitoSOX probe, flow cytometer, H460; assay type: cell-based, human
[11] = test system: PARP (poly (ADP ribosyl) polymerase); test: PARP activation in H1299CAT cells with doxycycline induction of CAT overexpression; assay type: cell-based, human; details: CAT induced with doxycycline
Description: When treated with doxcycline, H1299CAT cells express greater levels of human catalase (CAT) than the “parent” cells, H1299 (wild type), eliminating all or part of the H2O2 generated from superoxide by GC4419 or other Mn pentaaza macrocyclic dismutase mimetics.

[12] = test system: PARP (poly (ADP ribosyl) polymerase); test: PARP activation in H460 cells (Western blot, 89 kd active/116 kd inactive form); assay type: cell-based, human
Description: PARP is a nuclear enzyme involved in DNA repair of single strand breaks and is activated following cell stress including chemotherapy and irradiation.

head and neck patients = details: concurrent chemoradiotherapy; cited from earlier work
[13] = test system: athymic female Nu/Nu (nude) mice; test: Cisplatin-induced hematotoxicity in SQ20B tumor-bearing nude mice; assay type: in vivo, mouse
Experimental: 7 week old athymic female Nu/Nu (nude) mice were implanted in a hind leg with SQ20B human head and neck squamous cell carcinoma cells. […] Mice were assessed for blood counts by tail vein blood collection either 2 days or 2 weeks after the treatment period.

rat [14] = details: rat model, Tuder et al. 2003; cited from earlier work
[15] = test system: PARP (poly (ADP ribosyl) polymerase); test: PARP activation in H1299 (wild type) cells (Western blot); assay type: cell-based, human
[16] = test system: H1299 human NSCLC cells, modified to inducibly overexpress catalase (H1299CAT); test: Survival of H1299CAT cells with GC4419, cisplatin and catalase overexpression; assay type: cell-based; design: dose or concentration left out as unconfirmed; details: GC4419 added to cisplatin, 120 hours
Description: CAT overexpression in this line (H1299CAT) was induced by administration of doxycycline, which turned on transcription of the inserted catalase genes.

H1299 (wild type) cells [17] = test: Mitochondrial superoxide, MitoSOX probe, flow cytometer, H1299; assay type: cell-based, human
H460 cells [18] = test: Total reactive oxygen species, CellROX probe, flow cytometer, H460; assay type: cell-based, human
Experimental: as §1

H460 cells [19] = test: Hydrogen peroxide, PO-1 probe, H460; assay type: cell-based, human
[20] = test system: hair cells of the cochlea; details: cited from earlier work
patients = details: human, in vivo; cited from earlier work
[21] = H1299, GC4419 added to cisplatin or cisplatin plus IR
[22] = 10 mg/kg GC4419 daily + cisplatin
[23] = 10 mg/kg GC4419 daily from 4 days prior to 10 mg/kg cisplatin until euthanasia
[24] = H460, GC4419 added to cisplatin or cisplatin plus IR
[25] = 10 mg/kg GC4419 + cisplatin + IR
[26] = 10 mg/kg GC4419 + cisplatin + IR, 2 days and 2 weeks after end of treatment
[27] = H1299, cisplatin or cisplatin plus IR
[28] = H460, cisplatin or cisplatin plus IR

## [Cl-].[Cl-].[Mn+2].c1cc2nc(c1)CN[C@@H]1CCCC[C@H]1NCCN[C@@H]1CCCC[C@H]1NC2 [GC4403]
Rat [1]
  inflammation: inhibit inflammation
Rat [2]
  joint disease: prevent joint disease
Adult mice
  radiation damage: attenuate the radiation damage
[3]
  injury to the colon: very significantly reduce the injury to the colon
hamster
  radiation damage: attenuate the radiation damage

## [Cl][Mn][Cl].c1cc2nc(c1)CN[C@H]1CCCC[C@@H]1NCCN[C@H]1CCCC[C@@H]1NC2 [GC4419]
[4]; GC4419 0.5, 2 or 4 μM with cisplatin, 24 h
  number of hair cells (FIG. 12A): dose-dependent protection against hair cell damage
[4]; GC4419 with cisplatin
  hair cell damage, microscopy images (FIG. 12B): reduced damage to the hair cells caused by cisplatin and preserved the number of hair cells
H1299 (wild type) cells [5]; [21]
  H2O2 (PO-1 probe): significantly further increases the increase in H2O2
H1299 (wild type) cells [5]; H1299, GC4419 alone
  basal levels of H2O2 (PO-1 probe): significantly increases both the basal levels of H2O2
CBA/CaJ mice
  weight loss (FIG. 14): reduced the amount of weight loss caused by cisplatin
Male C57BL/6J mice; [22]
  kidney injury molecule 1 (KIM1) biomarker: prevented that injury
  neutrophil gelatinase-associated lipocalin (NGAL) biomarker: prevented that injury
Male C57BL/6J mice; 10 mg/kg GC4419 daily + cisplatin, old mice
  survival: prevented cisplatin mortality
Male C57BL/6J mice; 10 mg/kg GC4419 daily + cisplatin, young and old mice
  weight loss: reduced the amount of weight loss
Male C57BL/6J mice; [23]
  creatinine level: completely prevented these increases in BUN and creatinine
  whole blood urea nitrogen (BUN) level: completely prevented these increases in BUN and creatinine
[6]
  oral mucositis: reduce oral mucositis
[7]
  surviving fraction of cells: decreased the surviving fraction
[8]
  number of hair cells (FIG. 15): protective effect of GC4419 on the hair cells
H1299 (wild type) cells [9]; H1299, 24 M GC4419 used alone
  total ROS (CellROX signal): little effect on total ROS
H1299 (wild type) cells [9]; H1299, GC4419 added to cisplatin therapy
  total ROS (CellROX signal): synergistic effect on total ROS
H460 cells [10]; [24]
  mitochondrial superoxide (MitoSOX signal): significantly reduced the increase in mitochondrial superoxide
H460 cells [10]; H460, GC4419 alone
  basal levels of mitochondrial superoxide (MitoSOX signal): significantly reduced the basal levels of mitochondrial superoxide
[11]; 24 M GC4419 + 1 M cisplatin, 24 hours (p<0.01, FIG. 6B)
  PARP activation response to cisplatin: significantly (p<0.05) reduced the PARP activation response
[11]; 24 M GC4419 + 6 Gy IR + 1 M cisplatin, 24 hours (p<0.001, FIG. 6C)
  PARP activation response to IR+cisplatin: significantly (p<0.05) reduced the PARP activation response
[11]; 24 M GC4419 + 6 Gy IR, 24 hours (p<0.05, FIG. 6C)
  PARP activation response to IR: significantly (p<0.05) reduced the PARP activation response
[12]; 24 μM GC4419 added to 6 Gy IR + 1 μM cisplatin, 24 hr
  PARP activity (ratio 89 kd active to 116 kd inactive form): significantly increased (p<0.01)
[12]; 24 μM GC4419 added to 6 Gy IR, 24 hr, vs radiation alone
  PARP activity (ratio 89 kd active to 116 kd inactive form): significantly increased PARP activity
[12]; 24 M GC4419 added to 1 M cisplatin, 24 hours, vs cisplatin
  PARP activity (ratio 89 kd active to 116 kd inactive form): further and significantly (p<0.01) increased PARP activity
Head and neck patients
  incidence of chronic kidney disease: significantly decrease the incidence of chronic kidney disease
[13]; [25]
  eosinophil percentage: maintained eosinophil percentage at apparently normal levels
  neutrophil percentage: maintained neutrophil percentage at apparently normal levels
[13]; [26]
  leukocyte (WBC) count: stimulated leukocyte (WBC)
  lymphocyte subset: proportionally lymphocyte subset production
[13]; 10 mg/kg GC4419 every day + cisplatin + IR, two days after end of treatments
  platelets: significantly restored platelet levels
Rat [14]
  VEGFr inhibitor-induced pulmonary disease: attenuate VEGFr inhibitor-induced pulmonary disease
[15]; 24 μM GC4419 added to 10 μM cisplatin, 24 hr, vs cisplatin
  PARP activity (ratio 89 kd active to 116 kd inactive form): further and significantly p<0.01) increased PARP activity
[15]; 24 M GC4419 added to 6 Gy IR + 1 M cisplatin, 24 hours
  PARP activity (ratio 89 kd active to 116 kd inactive form): significantly increased (p<0.0.05)
[15]; 24 M GC4419 added to 6 Gy IR, 24 hours, vs radiation alone
  PARP activity (ratio 89 kd active to 116 kd inactive form): significantly increased PARP activity
[16]; with CAT overexpression (doxycycline)
  surviving fraction of cells: abrogated the GC4419 contribution to cisplatin response
[16]; without CAT overexpression (wt), vs cisplatin alone
  surviving fraction of cells: decreased the surviving fraction
H1299 (wild type) cells [17]; [21]
  mitochondrial superoxide (MitoSOX signal): significantly reduced the increase in mitochondrial superoxide
H1299 (wild type) cells [17]; H1299, GC4419 alone
  basal levels of mitochondrial superoxide (MitoSOX signal): significantly reduced the basal levels of mitochondrial superoxide
H460 cells [18]; H460, 24 M GC4419 used alone
  total ROS (CellROX signal): little effect on total ROS
H460 cells [18]; H460, GC4419 added to cisplatin therapy
  total ROS (CellROX signal): synergistic effect on total ROS
H460 cells [19]; [24]
  H2O2 (PO-1 probe): significantly further increases the increase in H2O2
H460 cells [19]; H460, GC4419 alone
  basal levels of H2O2 (PO-1 probe): significantly increases both the basal levels of H2O2

## N.N.[Cl][Pt][Cl] [cisplatin, reference compound]
H1299 (wild type) cells [5]; [27]
  H2O2 (PO-1 probe): increase in H2O2
H1299 (wild type) cells [9]; H1299, 1 M cisplatin or cisplatin plus 6 Gy IR
  total ROS (CellROX signal): increased total ROS
H460 cells [10]; [28]
  mitochondrial superoxide (MitoSOX signal): increase in mitochondrial superoxide
[20]
  damage to inner hair cells (IHCs): sparing of inner hair cells (IHCs)
  damage to outer hair cells (OHCs): profoundly damages outer hair cells (OHCs)
H1299 (wild type) cells [17]; [27]
  mitochondrial superoxide (MitoSOX signal): increase in mitochondrial superoxide
patients
  mean cHL: 36 dB
H460 cells [18]; H460, 1 M cisplatin or cisplatin plus 6 Gy IR
  total ROS (CellROX signal): increased total ROS
H460 cells [19]; [28]
  H2O2 (PO-1 probe): increase in H2O2
